Activity calls are given as the source filed them.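 The calls were made as follows: active = fitted curve falls past a set limit of signal loss at no more than twice the top dose; inconclusive = flat fit between 30 and 70% signal loss, or poor fit; inactive = signal rise, flat within 30%, or crossing too high.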
Assay: HEK293T cell cytotoxicity, dose response, cytotoxicity control, CellTiter-Glo luminescence, cherry-pick, set 3 (AID 720588)
Settings: HEK293T viability, CellTiter-Glo ATP luminescence, 72 h

## CCN1C/C(=C/c2ccc(OC)c(O)c2)C(=O)/C(=C/c2ccc(OC)c(O)c2)C1
At 26 µM (top of the series)
  activity change, negative = cytotoxicity: -23.5% (inactive)

## CCOc1cc(N2CCC(O)CC2)ccc1Nc1ncc2c(n1)N(C)c1ccccc1C(=O)N2C
At 26 µM (top of the series)
  activity change, negative = cytotoxicity: 22.8% (inactive)

## Cc1nc2cc(-c3ccc(Cl)cc3)nn2c(C)c1CCC(=O)NC(C)c1ccc2c(c1)OCCO2 (configuration not stated)
At 26 µM (top of the series)
  activity change, negative = cytotoxicity: -34.9% (inactive)

## O=C(C[C@@H]1C[C@H]2c3cc(NC(=O)CC4CC4)ccc3O[C@H]2[C@H](CO)O1)NCc1ccccc1F
At 26 µM (top of the series)
  activity change, negative = cytotoxicity: 13.3% (inactive)

## Cc1c(Cc2ccc3c(c2)OCO3)sc(NC(=O)C(C)(C)C)c1C#N
At 26 µM (top of the series)
  activity change, negative = cytotoxicity: -13.7% (inactive)

## CCc1ccc(Cn2ncc3c(C(=O)O)cc(C)nc32)cc1
At 26 µM (top of the series)
  activity change, negative = cytotoxicity: -2.66% (inactive)

## C[C@H]1CN([C@@H](C)CO)C(=O)Cc2cc(NC(=O)CCC(F)(F)F)ccc2O[C@H]1CN(C)Cc1ccc(C(=O)Nc2ccccc2N)cc1
At 21 µM (top of the series)
  activity change, negative = cytotoxicity: -31.3% (inactive)

## O=C(CN1C(=O)C(=O)c2ccccc21)c1ccc(Cl)cc1
At 26 µM (top of the series)
  activity change, negative = cytotoxicity: -23.4% (inactive)

## Cc1ccsc1/C=N/Nc1ccc(C(=O)O)cc1
At 26 µM (top of the series)
  activity change, negative = cytotoxicity: -12.7% (inactive)

## N#CC1=C(N)Oc2cc(N)ccc2C1c1cccc(Br)c1 (configuration not stated)
At 26 µM (top of the series)
  activity change, negative = cytotoxicity: -22.2% (inactive)

## CC(NC(=O)c1ccco1)c1nc(-c2ccc(C(C)(C)C)cc2)no1 (configuration not stated)
At 26 µM (top of the series)
  activity change, negative = cytotoxicity: -23% (inactive)

## COc1cc(-c2noc(C)c2C#Cc2nccn2C)cc(OC)c1OC
At 26 µM (top of the series)
  activity change, negative = cytotoxicity: -11% (inactive)

## CN(C)c1ccc(N=Nc2ccc(C(=O)O)cc2)cc1
At 26 µM (top of the series)
  activity change, negative = cytotoxicity: -1.83% (inactive)

## COc1ccc(C2=NNC(=Nc3cc(S(=O)(=O)N(C)C)ccc3C)SC2)c(OC)c1
At 26 µM (top of the series)
  activity change, negative = cytotoxicity: -17.5% (inactive)

## O=C1NC(=O)N(CCc2ccc(F)cc2)C(=O)/C1=C/C=C/c1ccccc1
At 26 µM (top of the series)
  activity change, negative = cytotoxicity: -10.7% (inactive)

## Oc1c(Cl)cc(Cl)c2cccnc12
At 26 µM (top of the series)
  activity change, negative = cytotoxicity: -45.5% (inactive)

## COC(=O)C[C@H]1CC[C@@H](NC(=O)Nc2ccc(C(F)(F)F)cc2)[C@H](CO)O1
At 26 µM (top of the series)
  activity change, negative = cytotoxicity: 9.14% (inactive)

## CCS(=O)(=O)N1Cc2ccccc2CC1C(=O)Nc1nnc(SCc2ccc(C#N)cc2)s1 (configuration not stated)
At 26 µM (top of the series)
  activity change, negative = cytotoxicity: -8.94% (inactive)

## CCNC(=O)c1cccc(S(=O)(=O)N2CCCCCC2)c1
At 26 µM (top of the series)
  activity change, negative = cytotoxicity: -6.96% (inactive)

## c1cncc(-c2ccc([C@@H]3[C@H]4CNC[C@@H]3N4CC3CCOCC3)cc2)c1
At 26 µM (top of the series)
  activity change, negative = cytotoxicity: 61.9% (inactive)

## Cc1cc(-c2nc3ccccc3s2)ccc1N
At 26 µM (top of the series)
  activity change, negative = cytotoxicity: -28% (inactive)

## CN(C)Cc1c(O)ccc2c1O/C(=C\C=C\c1ccccc1)C2=O
At 26 µM (top of the series)
  activity change, negative = cytotoxicity: -32.1% (inactive)

## C[C@H](CO)N1C[C@H](C)[C@H](CN(C)CC2CCCCC2)Oc2ccc(NC(=O)Nc3cccc4ccccc34)cc2C1=O
At 26 µM (top of the series)
  activity change, negative = cytotoxicity: -16.8% (inactive)

## Nc1ccc2oc(-c3cc(Br)ccc3Cl)nc2c1
At 26 µM (top of the series)
  activity change, negative = cytotoxicity: 19.3% (inactive)

## Cc1noc(C)c1NC(=O)Nc1ccc2c(c1)CC(=O)N([C@H](C)CO)C[C@@H](C)[C@@H](CN(C)Cc1ccc(Cl)c(Cl)c1)O2
At 26 µM (top of the series)
  activity change, negative = cytotoxicity: 56.7% (inactive)

## CCc1c(C(=O)NN2C(=O)C3CCCCC3C2=O)csc1C (configuration not stated)
At 26 µM (top of the series)
  activity change, negative = cytotoxicity: -15.1% (inactive)

## COC(=O)C[C@@H]1CC[C@@H]2[C@H](COc3ccc(NC(=O)c4cc(C)on4)cc3C(=O)N2C)O1
At 26 µM (top of the series)
  activity change, negative = cytotoxicity: -12.8% (inactive)

## COc1ccccc1NC(=O)N1[C@@H]2CNC[C@H]1[C@@H]2c1ccc(-c2ccc(C#N)cc2)cc1
At 23.5 µM (top of the series)
  activity change, negative = cytotoxicity: -30.3% (inactive)

## O=C(N/N=C/c1ccc[nH]1)c1cc(-c2ccc(Cl)cc2)nc2ccccc12
At 26 µM (top of the series)
  activity change, negative = cytotoxicity: -26.6% (inactive)

## Cc1ccsc1C(=O)OCC(=O)c1cc(C)n(C)c1C
At 26 µM (top of the series)
  activity change, negative = cytotoxicity: -19.5% (inactive)

## COc1cc(/C=N/NS(=O)(=O)c2ccc(C)cc2)ccc1OCc1cccc(C(=O)O)c1
At 26 µM (top of the series)
  activity change, negative = cytotoxicity: 5.87% (inactive)

## Cc1ccc(NC(=O)CCN2CCCCC2)cc1
At 26 µM (top of the series)
  activity change, negative = cytotoxicity: 17.2% (inactive)

From PubChem BioAssay AID720588 (Broad Institute, 2013)
